Measured values taken from ChEMBL document CHEMBL1149922, “Novel tryptophan dioxygenase inhibitors and combined tryptophan dioxygenase/5-HT reuptake inhibitors” (Bioorg Med Chem Lett, 1996).
pIC50, pKi: −log10 of the molar value.

Assays:
Rattus norvegicus = species on record: Rattus norvegicus; test: Inhibition of 5-HT reuptake in rat […] was measured; format: functional, organism-based
[1] = target: Tryptophan 2,3-dioxygenase (Rattus norvegicus, UniProt P21643); test: Compound was tested for inhibition of Tryptophan dioxygenase (TDO) from rat liver
Tryptophan 2,3-dioxygenase, sequence (P21643 whole entry): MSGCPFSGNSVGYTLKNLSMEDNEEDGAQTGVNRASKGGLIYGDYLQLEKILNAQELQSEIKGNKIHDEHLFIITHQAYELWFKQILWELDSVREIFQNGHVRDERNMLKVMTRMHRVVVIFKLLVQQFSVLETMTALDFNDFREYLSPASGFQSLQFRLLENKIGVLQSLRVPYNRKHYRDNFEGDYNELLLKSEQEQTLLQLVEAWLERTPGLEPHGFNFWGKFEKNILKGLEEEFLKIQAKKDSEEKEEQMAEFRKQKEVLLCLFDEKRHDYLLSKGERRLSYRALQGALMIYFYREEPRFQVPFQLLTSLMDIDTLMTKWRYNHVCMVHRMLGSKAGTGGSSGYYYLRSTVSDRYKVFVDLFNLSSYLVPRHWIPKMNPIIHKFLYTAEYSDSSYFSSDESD

| pIC50 (Rattus norvegicus) | pKi [1] | Structure (SMILES) |
| --- | --- | --- |
| 5.82 | 7.52 | C(=C\c1c[nH]c2ccccc12)/c1ccncc1 |
|  | 7.30 | Fc1ccc2[nH]cc(/C=C/c3cccnc3)c2c1 |
|  | 7.00 | C(=C\c1c[nH]c2ccccc12)/c1ccccn1 |
|  | 7.40 | Fc1ccc2[nH]cc(/C=C/c3ccncc3)c2c1 |
|  | 7.52 | Fc1ccc2c(/C=C/c3cccnc3)c[nH]c2c1 |
| 6.05 | 7.52 | Fc1ccc2c(/C=C/c3ccncc3)c[nH]c2c1 |
|  | 7.40 | C(=C\c1c[nH]c2ccccc12)/c1cccnc1 |
